Counter-ions that a name gives are not always drawn.
Assay: collision cross section in nitrogen (drift tube, single-field); higher = larger gas-phase ion size
[1] = ion type: [M+H], ion source: APCI, ion mode: Positive
[2] = ion type: [M+H], ion source: ESI, ion mode: Positive
[3] = ion type: [M+], ion source: APCI, ion mode: Positive
[4] = ion type: [M-H], ion source: ESI, ion mode: Negative
[5] = ion type: [M+Na], ion source: ESI, ion mode: Positive
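Further: chemical standards at 10 µM analysed by drift tube IMS-QTOF MS in about 3.95 torr nitrogen, mean of duplicate injections differing ≤1%, mass error below 10 ppm.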

SMILES	collision cross section in nitrogen [1]	collision cross section in nitrogen [2]	collision cross section in nitrogen [4]	other results
Cc1cc(C)c(C=C2C(=O)Nc3ccccc32)[nH]1 [SU-5416]	153.9 Å²	154.2 Å²	158.4 Å²	collision cross section in nitrogen [3]: 152.2 Å²
Cc1nc(-c2ccccn2)ncc1C(=O)Nn1cc(C)c2cc(F)ccc21	184.3 Å²	184.3 Å²	193.9 Å²	collision cross section in nitrogen [5]: 181.8 Å²; collision cross section in nitrogen [3]: 190.7 Å²
Cc1cccc(C)c1NC(=O)CN1CCCC1=O [Nefiracetam]	–	–	–	collision cross section in nitrogen [5]: 167.3 Å²
CC(C)(c1cc(Br)c(O)c(Br)c1)c1cc(Br)c(O)c(Br)c1 [3,3',5,5'-Tetrabromobisphenol A]	–	–	193.4 Å²	–
Clc1ccc(C2(Cn3cncn3)CC(Br)CO2)c(Cl)c1 (centres undefined) [Bromuconazole]	172.7 Å²	172.6 Å²	–	–
Nc1c(S(=O)(=O)O)cc(Br)c2c1C(=O)c1ccccc1C2=O [Bromamine acid sodium salt]	–	–	169.2 Å²	–
O=C(O)c1cc[c]([Hg][Cl])cc1 [4-Chloromercuribenzoic acid]	–	–	143 Å²	–
O=[N+]([O-])c1ccc(-c2nnc(O)o2)o1 [5-(5-Nitro-2-furyl)-1,3,4-oxadiazole-2-ol]	–	–	135.2 Å²	–
CC(=O)CC(=O)Nc1ccccc1C [N-(2-Methylphenyl)-3-oxobutanamide]	–	–	142.5 Å²	collision cross section in nitrogen [5]: 154.9 Å²
CCCCCCCCOCCCN [3-(Octyloxy)propan-1-amine]	156.9 Å²	156.2 Å²	–	–
ClCc1cccnc1 [3-(Chloromethyl)pyridine hydrochloride]	123.8 Å²	–	–	–
c1ccc2cc3c(cc2c1)-c1cccc2cccc-3c12 [Benzo[k]fluoranthene]	–	–	–	collision cross section in nitrogen [3]: 151.3 Å²
Cn1c(-c2ccccc2)cc(-c2ccccc2)[n+]1C [Difenzoquat metilsulfate]	–	–	–	collision cross section in nitrogen (ion source: APCI, ion mode: Positive, ion type: [M]+ (permanent cation)): 160 Å²; collision cross section in nitrogen (ion source: ESI, ion mode: Positive, ion type: [M]+ (permanent cation)): 160.8 Å²
Cc1cccc(N)n1 [6-Methylpyridin-2-amine]	118.6 Å²	119.5 Å²	–	–
CCN(CC)c1ccc(N=Nc2ccccc2)cc1 [C.I. Solvent Yellow 56]	165.9 Å²	165.9 Å²	–	–
CN1CCN(c2ccccc2/C=C2\SCCN(c3ccc(Cl)c(Cl)c3)C2=O)CC1 [Elzasonan]	204 Å²	203.8 Å²	–	collision cross section in nitrogen [5]: 211.4 Å²
Nc1nnc(-c2ccc([N+](=O)[O-])o2)o1 [2-Amino-5-(5-nitro-2-furyl)-1,3,4-oxadiazole]	–	–	135.3 Å²	–
COP(=S)(OC)Oc1ccc(Sc2ccc(OP(=S)(OC)OC)cc2)cc1 [Temephos]	189.4 Å²	189.5 Å²	–	collision cross section in nitrogen [5]: 196.3 Å²
N#CCc1ccc(Cl)cc1 [4-Chlorophenylacetonitrile]	–	–	130.4 Å²	–
COc1ccc(OC(F)(F)F)cc1CN[C@H]1CCCN[C@H]1c1ccccc1	182.7 Å²	183.3 Å²	–	collision cross section in nitrogen [5]: 190.7 Å²
Nc1cccc(N)n1 [2,6-Diaminopyridine]	118.9 Å²	119.8 Å²	–	–

SMILES	collision cross section in nitrogen [1]	collision cross section in nitrogen [2]	collision cross section in nitrogen [4]	other results
CCCCCCCCCCCCN1CCCC1=O [1-Dodecyl-2-pyrrolidinone]	–	176.3 Å²	–	collision cross section in nitrogen [5]: 176.6 Å²
Cc1c[nH]c2ccccc12 [3-Methylindole]	–	–	125.2 Å²	–
CC(=O)c1ccc(O)cc1 [4-Hydroxyacetophenone]	–	–	125.5 Å²	–
Cc1cc(Cl)ccc1O [4-Chloro-2-methylphenol]	–	–	124.8 Å²	–
Cc1cc(N)n(-c2ccccc2)n1 [3-Methyl-1-phenyl-1H-pyrazol-5-amine]	136.3 Å²	136.5 Å²	136.1 Å²	–
CNC(=O)CSP(=O)(OC)OC [Omethoate]	137.1 Å²	–	–	collision cross section in nitrogen [5]: 145.9 Å²
CC(C)OC(=O)C(C)(C)Oc1ccc(C(=O)c2ccc(Cl)cc2)cc1 [Fenofibrate]	–	192.8 Å²	–	collision cross section in nitrogen [5]: 198.4 Å²
CC(C)(C)NC(=O)[C@H]1CC[C@H]2[C@@H]3CC[C@H]4NC(=O)C=C[C@]4(C)[C@H]3CC[C@]12C [Finasteride]	204.7 Å²	203.3 Å²	198.1 Å²	collision cross section in nitrogen [5]: 226.8 Å²
CCCN(CCC)c1c([N+](=O)[O-])cc(S(N)(=O)=O)cc1[N+](=O)[O-] [Oryzalin]	–	–	177.3 Å²	–
O=C(O)CCN(C1(C(=O)NO)CCCC1)S(=O)(=O)c1ccc(Oc2ccc(F)cc2)cc1	–	–	198.1 Å²	collision cross section in nitrogen [5]: 211 Å²
CCCCCCCC/C=C\CCCCCCCC(=O)O [Oleic acid]	–	–	176.3 Å²	–
Nc1c(Cl)cc(Cl)cc1[N+](=O)[O-] [2,4-Dichloro-6-nitroaniline]	–	–	131.4 Å²	–
Cc1ccc(C(C)(C)C)c(O)c1 [2-tert-Butyl-5-methylphenol]	–	–	138.7 Å²	–
Oc1cc(Cl)c(Cl)cc1Cl [2,4,5-Trichlorophenol sodium salt]	–	–	128.6 Å²	–
c1cc(CCCc2ccncc2)ccn1 [4,4'-Propane-1,3-diyldipyridine]	146.1 Å²	145.7 Å²	–	–
O=C1c2ccccc2C(=O)c2c(O)ccc(O)c21 [1,4-Dihydroxyanthracene-9,10-dione]	–	–	148.9 Å²	–
O=C1Cc2ccccc2N1c1c(Cl)cccc1Cl [1-(2,6-Dichlorophenyl)-2-indolinone]	153.5 Å²	–	–	–
Cc1ccc(C)c(S(=O)(=O)O)c1 [2,5-Dimethylbenzenesulfonic acid monohydrate]	–	–	138.2 Å²	–
CC(C)(c1ccc(O)c(-c2ccccc2)c1)c1ccc(O)c(-c2ccccc2)c1 [BisOPP-A]	–	–	204 Å²	–
CC1COCc2cc3c(cc21)C(C)(C)C(C)C3(C)C (centres undefined)	–	–	–	collision cross section in nitrogen [3]: 163.2 Å²
CCOP(=S)(Oc1cnc(C(C)(C)C)nc1)OC(C)C (centres undefined) [Tebupirimfos]	177.4 Å²	177.4 Å²	–	–

SMILES	collision cross section in nitrogen [1]	collision cross section in nitrogen [2]	collision cross section in nitrogen [4]	other results
N=C1NC(=N)c2ccccc21 [1H-Isoindole-1,3(2H)-diimine]	–	126.4 Å²	–	–
COc1ccc(Nc2ccccc2)c(C)c1 [4-Methoxy-2-methyl-N-phenylaniline]	150.5 Å²	150.5 Å²	–	collision cross section in nitrogen [3]: 148.1 Å²
Nc1ccc(N=Nc2ccccc2)c(N)n1 [Phenazopyridine hydrochloride]	150 Å²	150.3 Å²	148.1 Å²	–
[O-][Cl+3]([O-])([O-])O [Potassium perchlorate]	–	–	105.2 Å²	–
O=C(Nc1ccccc1)c1cc2ccccc2cc1O [3-Hydroxy-2-naphthanilide]	160.9 Å²	160.7 Å²	160.7 Å²	–
Cc1ccc2ccccc2n1 [2-Methylquinoline]	125.2 Å²	126.2 Å²	–	–
O=C(Nc1ccccc1SSc1ccccc1NC(=O)c1ccccc1)c1ccccc1 [2,2'-Dibenzoylaminodiphenyl disulfide]	194.6 Å²	194 Å²	206 Å²	collision cross section in nitrogen [5]: 203 Å²
Cc1ccccc1S(=O)(=O)O [Sodium 2-methylbenzenesulfonate]	–	–	131.7 Å²	–
CCCCCCCCOC(=O)CCCCCCCCC(=O)OCCCCCCCC [Dioctyl sebacate]	–	224.6 Å²	–	collision cross section in nitrogen [5]: 225.4 Å²
CN(C)CCCN1c2ccccc2CCc2ccccc21 [Imipramine hydrochloride]	165.8 Å²	166 Å²	–	collision cross section in nitrogen [5]: 172.7 Å²
C[C@H]1C[C@H]2[C@@H]3CCC4=CC(=O)C=C[C@]4(C)[C@@]3(F)[C@@H](O)C[C@]2(C)[C@@]1(O)C(=O)COP(=O)(O)O [Betamethasone 21-phosphate disodium]	–	–	199.8 Å²	collision cross section in nitrogen [5]: 211.7 Å²
CC(CCC(=O)O)(c1ccc(O)cc1)c1ccc(O)cc1 [4,4-Bis(4-hydroxyphenyl)valeric acid]	–	–	177.5 Å²	–
CC(C)C1(C)N=C(c2nc3ccccc3cc2C(=O)O)NC1=O (centres undefined) [Imazaquin]	171.7 Å²	171.7 Å²	176.9 Å²	collision cross section in nitrogen [5]: 188.4 Å²
N#Cc1c(-c2ccc(Cl)cc2)[nH]c(C(F)(F)F)c1Br [Tralopyril]	–	–	157.9 Å²	–
O=C(Nc1ccc2c(c1)Cc1ccccc1-2)C(F)(F)F [N-(2-Fluorenyl)-2,2,2-trifluoroacetamide]	–	–	160.4 Å²	collision cross section in nitrogen [3]: 156.6 Å²
CC(C)(C)c1cc(-n2nc3ccccc3n2)c(O)c(C(C)(C)C)c1 [2-(2'-Hydroxy-3',5'-di-tert-butylphenyl)benzotriazole]	–	–	192.5 Å²	collision cross section in nitrogen [3]: 186 Å²
CN(C)c1ccncc1 [N,N-dimethylpyridin-4-amine]	120.6 Å²	120.5 Å²	–	–
O=C(Oc1ccc(Br)cc1)N1CCN2CCC1CC2 [4-Bromophenyl 1,4-diazabicyclo(3.2.2)nonane-4-carboxylate]	177.7 Å²	178.5 Å²	–	–
CN(C)c1ccc(C(=N)c2ccc(N(C)C)cc2)cc1 [Auramine hydrochloride]	168.3 Å²	169.8 Å²	–	–
